Where no end group is shown, it is not given here. [ ]: non-standard residue; d: D form.
System: HEK-Bcan cells
Experiment: Flow cytometry blocking study with 50× molar excess of unlabeled peptide
Format: cell-based, human
Conditions: fluorescein-conjugated peptide 1 μM
Description: Cells were washed once with PBS and then, treated with 1 mL of 2.5 mM EDTA to dissociate the cells. The EDTA was removed by centrifugation, and PBS supplemented with 10% FBS was added to create a single-cell suspension. All peptide stocks were dissolved in DMSO, and stored at −20° C. in the dark. Cells were incubated with each peptide (at the desired final concentration, between 1-10 μM) for 3 hrs at 37° C. in the dark under constant rotation. After incubation, cells were washed 3× with PBS with 10% FBS (by centrifugation at 7000 rpm for 3 mins each). Then, cells were resuspended in 3.7% formaldehyde for fixation, and finally washed once with PBS. Cells were evaluated for peptide uptake (mean fluorescence intensity) by flow cytometry (10,000-20,000 events).
For blocking studies, cells were dissociated as described above and resuspended in cold PBS with 10% FBS. Cells were then incubated with a 50× molar excess of unlabeled peptide for 10 mins on ice, before adding the corresponding FITC-labeled peptide at a final concentration of 1 μM and incubated for 1.5 hrs on ice. Cells were then washed with cold PBS with 10% FBS, fixed and analyzed by flow cytometry.

BTP-10: BΔg-targeting peptide of 8 D-amino acid residues from OBOC screen; sequence only in FIG. 3A ([dS][dH][dW][dA][dV][dN][dR][dF]; not fully specified)
uptake in HEK-Bcan cells in the presence of the blocking peptide: reduced uptake

— patent publication US12527835B2, “Brevican-binding peptides for brain tumor imaging” (The Brigham and Women's Hospital, Inc., priority 2018, dated 2026)
